Experimental findings from patent US20210246109A1, “POTENT AND SELECTIVE INHIBITORS OF CYTOCHROME P450” (University of Kentucky Research Foundation, priority 2020, published 2021) are described below.

SMILES strings stand for the structures. “And” between values parts separate entries of the source, which are not always exact repeats. Equal values may be shown once. Read-outs that look alike come from different tables or passages of the source.

Series [1] concerns the target T1, CYP1A1 (Homo sapiens, UniProt P04798).
T1 construct: expressed in transfected cells
T1 sequence (P04798 1-512): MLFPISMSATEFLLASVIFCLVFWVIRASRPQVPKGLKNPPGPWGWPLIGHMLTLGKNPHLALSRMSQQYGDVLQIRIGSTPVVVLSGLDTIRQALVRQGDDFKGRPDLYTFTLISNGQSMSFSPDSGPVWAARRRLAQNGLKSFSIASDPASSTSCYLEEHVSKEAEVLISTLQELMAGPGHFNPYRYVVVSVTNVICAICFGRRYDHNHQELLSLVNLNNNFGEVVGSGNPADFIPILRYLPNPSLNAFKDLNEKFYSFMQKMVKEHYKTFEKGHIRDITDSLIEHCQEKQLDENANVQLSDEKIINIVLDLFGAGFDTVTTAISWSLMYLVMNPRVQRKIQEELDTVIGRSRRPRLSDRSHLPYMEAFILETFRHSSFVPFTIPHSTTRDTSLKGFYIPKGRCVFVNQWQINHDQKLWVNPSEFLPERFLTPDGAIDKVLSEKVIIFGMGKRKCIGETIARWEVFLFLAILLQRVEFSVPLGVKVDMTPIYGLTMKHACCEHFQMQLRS
The series is described as follows: EROD assay in CYP1A1 counter-screen cell line. In kind it is cell-based. Particulars: for SI 1B1:1A1: selectivity index. The procedure: (§1) The activity of the inhibitors was assessed in a novel cell based assay generated for the purpose of this project. Enzymatic turnover of CYP1B1 was measured using the ethoxy-resorufin-O-deethylase (EROD) assay with the fluorescent substrate, resorufin ethyl ether. Cell lines were generated where the gene for CYP1B1 alone or CYP1B1 and cytochrome P450 reductase (CPR) were both under the control of an inducible promoter. A cell line was generated for counter screening where the gene for CYP1A1 was used. CYP1A1 is the closest family member to CYP1B1.
Background: Counterscreens check selectivity or assay interference.

Series [2] has as its target T2, CYP1B1 (Homo sapiens, UniProt Q16678).
T2 construct: expressed in transfected cells
T2 sequence (Q16678 1-543): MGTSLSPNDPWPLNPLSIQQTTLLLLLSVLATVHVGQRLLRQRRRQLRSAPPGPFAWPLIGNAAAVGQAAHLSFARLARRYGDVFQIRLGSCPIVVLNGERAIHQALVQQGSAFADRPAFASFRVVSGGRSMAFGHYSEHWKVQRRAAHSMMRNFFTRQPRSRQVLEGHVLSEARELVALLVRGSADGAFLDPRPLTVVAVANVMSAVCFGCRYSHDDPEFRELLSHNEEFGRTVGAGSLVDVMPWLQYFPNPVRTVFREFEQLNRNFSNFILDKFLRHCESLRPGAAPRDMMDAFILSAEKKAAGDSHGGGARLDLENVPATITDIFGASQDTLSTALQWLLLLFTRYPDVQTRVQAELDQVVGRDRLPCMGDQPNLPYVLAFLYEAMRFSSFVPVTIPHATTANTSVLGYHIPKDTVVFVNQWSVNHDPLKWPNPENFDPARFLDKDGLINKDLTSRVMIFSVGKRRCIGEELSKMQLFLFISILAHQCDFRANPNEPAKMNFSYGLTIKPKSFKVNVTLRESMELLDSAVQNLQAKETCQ
As to the kind of experiment: EROD assay in inducible CYP1B1 cell line. The format is cell-based. The procedure:
as §1

In series [3] the test system is HEK. The series is described as follows: Cytotoxicity, resazurin, 72 hours after compound addition. Particulars: Table 3; HEK; read-out: HEK cytotoxicity. In kind it is cell-based. The procedure: (§2) Cytotoxicity was assessed at 72 hours after compound addition using resazurin. The compounds that function as selective 1B1 inhibitors had no effect on cell health. This is an essential feature for any chemopreventative agent or molecules intended to block the detrimental action of an enzyme.

Experiment in series [4]: as above
The format is cell-based. The settings on record: human, HEK cells. The procedure:
as §2

Series [5] deals with T3, pooled human liver microsomes (pHLMs) (Homo sapiens, UniProt P05177).
T3 sequence (P05177 2-516): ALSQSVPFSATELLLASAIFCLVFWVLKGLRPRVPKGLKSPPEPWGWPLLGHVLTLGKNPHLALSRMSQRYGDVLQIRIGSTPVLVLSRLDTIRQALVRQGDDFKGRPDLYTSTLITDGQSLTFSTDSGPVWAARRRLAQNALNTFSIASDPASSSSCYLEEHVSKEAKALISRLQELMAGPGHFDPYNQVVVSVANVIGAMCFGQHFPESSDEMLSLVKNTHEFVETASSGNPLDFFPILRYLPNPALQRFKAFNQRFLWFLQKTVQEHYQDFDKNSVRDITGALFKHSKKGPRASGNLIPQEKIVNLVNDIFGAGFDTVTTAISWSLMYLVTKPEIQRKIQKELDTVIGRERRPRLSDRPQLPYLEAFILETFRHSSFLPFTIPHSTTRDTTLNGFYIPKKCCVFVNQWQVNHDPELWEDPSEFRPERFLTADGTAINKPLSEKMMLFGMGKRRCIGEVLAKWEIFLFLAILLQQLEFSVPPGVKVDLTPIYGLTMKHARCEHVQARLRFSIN
The series is described as follows: EROD counterscreen in pooled human liver microsomes. In kind it is biochemical. Particulars: for IC50: human, microsomes; for SI 1B1:HLM: selectivity index. The text has this: (§3) Human liver microsomes were used as a counterscreen to experimentally determine the magnitude of inhibitor selectivity.

Series [6] relates to MCF7 tumor spheroids. In kind it is cell-based. The settings on record: 547 0.5 μM with cisplatin 100 μM; CYP1B1 induced with benzo[a]pyrene. The text has this: 510 is a control compound that lacks a coordinating group. […] All other conditions are following CYP1B1 induction with benzo[a]pyrene. Spheroid shown in inset.
For series [7], the target named is T2, CYP1B1. The series is described as follows: CYP1B1 degradation on binding (FIG. 2C). The format is cell-based. The settings on record: 0.1 μM. The text has this:
(§4) FIG. 2A includes a dose response of 547 in EROD assay in CYP1B1 cell line (blue) vs. 1A1 cell line (black). […] 510 is a control compound that lacks a coordinating group. […] All other conditions are following CYP1B1 induction with benzo[a]pyrene. Spheroid shown in inset.

For series [8], the target named is T2, CYP1B1. As to the kind of experiment: Wash out experiment (FIG. 2B). The format is cell-based.
From the text: as §4

Series [9] addresses T3, pooled human liver microsomes (pHLMs). As to the kind of experiment: EROD counterscreen in pooled human liver microsomes. The format is biochemical. Set-up: IC50 pHLM; EROD assay. The settings on record: human, microsomes, Table 2; EROD assay.
From the text: as §3

Where [10] appears, read: Table 1, 72 hours, resazurin, read-out: Cytotoxicity IC50.
Where [11] appears, read: Table 2, EROD assay, read-out: IC50 CYP1A1.
Setting [12] is: Table 2, EROD assay, read-out: IC50 CYP1B1.

On to `COc1ccc(/C=C/c2ccncn2)c(OC)c1` [GL433], for which the IC50 in [1] (human, probe resorufin ethyl ether, Table 1, read-out: CYP1A1 IC50) was 10000 nM; in [1] (human, probe resorufin ethyl ether, Table 3, read-out: IC50 1A1), 10000 nM; in [2] (Table 1, read-out: CYP1B1 IC50), 76 nM; in [2] (Table 3, read-out: IC50 1B1), 76 nM; in series [3], more than 10000 nM; in [5] (Table 1, read-out: hLM IC50) it was 1100 nM. Further, the IC50 in series [5] (Table 3, read-out: IC50 pHLM) was 910 ± 370 nM. In series [2], the “activity as CYP1B1 inhibitor, in words” value is “potent”. The IC50 at 72 h in [4] (setting [10]) was more than 10000 nM.
Regarding `C#CCOc1ccc(-c2nc3ccccc3c(=O)[nH]2)cc1` [GL510], the IC50 at 72 h in series [4] (Table 3, HEK, read-out: HEK cytotoxicity) was determined as 406 nM. For the same compound, the IC50 in series [5] (Table 3, read-out: IC50 pHLM) amounted to 857 nM.
Regarding `N#CCOc1ccc(/C=C/c2ccncn2)cc1` [GL543], the IC50 in series [1] (Table 1, read-out: CYP1A1 IC50) is more than 10000 nM; in series [1] (Table 3, read-out: IC50 1A1), more than 10000 nM; in [2] (Table 1, read-out: CYP1B1 IC50) it was 4.9 nM; in series [2] (Table 3, read-out: IC50 1B1), 4.9 nM and 6.4 nM; in [5] (Table 1, read-out: hLM IC50), more than 10000 nM. Besides, the IC50 at 72 h in series [4] (setting [10]) is more than 10000 nM.
Regarding `N#CCOc1ccc(-c2nc(OCC#N)c3ccccc3n2)cc1` [GL547], in series [1] (1 μM, 24 h, FIG. 2D), the “activity of CYP1A1 over 24 h” value is reported as “no loss in activity”. Moreover, the IC50 in series [1] (Table 1, read-out: CYP1A1 IC50) is 1400 nM; in [1] (Table 3, read-out: IC50 1A1), 3730 nM and 2690 nM; in series [2] (Table 1, read-out: CYP1B1 IC50) it was 0.024 nM; in series [2] (Table 3, read-out: IC50 1B1), less than 0.25 nM; in series [5] (Table 1, read-out: hLM IC50), 4000 nM; in series [5] (Table 3, read-out: IC50 pHLM) it was 3000 nM. The “increase in cell death” value in series [6] is listed as 75%. Moreover, in series [7], the “effect of binding on CYP1B1 protein” value is reported as “causes degradation of CYP1B1”. Moreover, in series [4] (setting [10]), the IC50 at 72 h is more than 10000 nM. For the same compound, in [8], the “time CYP activity is suppressed after wash out” value is listed as more than 10 h.
For `N#CCOc1ccc(-c2nc(OCCCNC(=O)OCCOCCOCCOC(=O)NC34CC5CC(CC(C5)C3)C4)c3ccccc3n2)cc1` [GL581], the IC50 in series [1] (Table 1, read-out: CYP1A1 IC50) is 3600 nM; in series [1] (Table 3, read-out: IC50 1A1), 3580 nM; in series [2] (Table 1, read-out: CYP1B1 IC50), 0.12 nM; in series [2] (Table 3, read-out: IC50 1B1), less than 2.5 nM; in series [5] (Table 3, read-out: IC50 pHLM), more than 10000 nM. In series [4] (setting [10]), the IC50 at 72 h was more than 10000 nM.
For the compound `c1ccc(-c2nc(-c3cccnc3)cs2)nc1` [GL681], the IC50 was 85 nM in series [1] (setting [11]), 3240 nM in [9] and 2390 nM in series [2] (setting [12]). Moreover, the “SI 1B1:1A1” value in series [1] is reported as 0.035. The “SI 1B1:HLM” value in series [5] is listed as 0.14.
The like results for `COc1cc(OC)cc(-c2nc(-c3cccc(C(F)(F)F)c3)cs2)c1` [GL684] were, in that order, 2780 nM, more than 10000 nM, less than 0.01 nM, more than 27800 and more than 1000000.
